Results published in patent US10421780B2, “Peptide for targeting autophagic cells and use thereof” (Kyungpook National University Industry-Academic Cooperation …, priority 2015, dated 2019).
Ends that are not written are not given here.

Key:
[1] = test system: autophagy cells (rapamycin-treated HeLa or MDA-MB-231 cells); test: Immunofluorescent staining of phage clones on rapamycin-treated cells; format: cell-based; details: phage clones displaying the peptide; rapamycin 4 hr; anti-M13 immunofluorescence (FIG. 4)
Description: A phage clone with high specificity for binding to autophagy cells was selected through phage binding ELISA for autophagy cells. More specifically, For binding of each phage clone in vitro, cells were seeded at 2×10^4 cells/well in a 96-well culture plate and cultured in 80˜90% confluence. And then cells were treated with rapamycin in serum-free medium for 4 hours, then washed with PBS and blocked with 1% BSA for 30 minutes at room temperature. The treated cells were then incubated with each phage clone (1×10^9 pfu/well). The pool of a phage library was used as a control. After 1 hour incubation at 4° C. with a phage clone, the cells were washed again with PBS and fixed with […] (in DMEM). Next, HRP-conjugated anti-M13 phage monoclonal antibody (1:3000 dilution, NEB) was added to M13 phage and incubated at room temperature for one hour. The cells were washed three times with PBS, and the TMB substrate (100/well) was treated for 2-10 min for color development and the reaction was terminated by treatment with 2M H2SO4. The final color product was measured at 450 nm wavelength in microtitration plate reader (Sunrise, Tecan Austria) using a windows based program XFluor4.
Further, after the phage clones selected for the rapamycin-treated cells were cultured as described above, immunofluorescent staining was performed using a mouse monoclonal antibody to M13 phage (mouse anti-M13 monoclonal antibody, diluted 1:3000) and Alexa 549-labeled antibody (Alexa 549-conjugated anti-mouse IgG antibody, abcam) against the mouse antibody as a secondary antibody in a conventional manner to confirm the attachment specificity and effect of the phage clones, and used for screening. […] The four peptide sequences of the clones is as follows; CKHHLGAIC (AtgPep-1, SEQ ID NO: 1), CQQTKNYYC (AtgPep-2, SEQ ID NO: 2), CNTGSPYEC: SEQ ID NO: 3 (AtgPep-3, SEQ ID NO: 3), CPPNTDRSC (AtgPep-4, SEQ ID NO: 4). […] It was confirmed that the phage clones displaying AtgPep-1 to AtgPep-4 specifically bind to autophagy cells respectively. In particular, it was confirmed that the phage clones specifically bind to the autophagy cells even in the initial (4 hr) autophagy state.

[2] = test system: pEGFP-LC3-transfected MDA-MB-231 cells treated with EBSS; test: Detection of autophagy cells in the early stages of autophagy induction, fluorescence microscopy; format: cell-based; details: for fluorescence signal on early autophagy cells: Rhodamine B-labeled peptide 10 μmol/L, 4° C. 1 hour, EBSS 2 hours (FIG. 6); for site of binding on autophagy-induced cells: rhodamine-labeled peptide, single MDA-MB-231 cell (FIGS. 7A and 7B)
Description: (§1) pEGFP-LC3-transfected MDA-MB-231 cells were cultured on an eight-chamber slide and were treated with EBSS (Earl's balanced salt solution) for 2 hours to induce autophagy. Cells were then washed with PBS and treated with 10 μmol/L of each solution of Rhodamine B-labeled AtgPep-1 to AtgPep-4 (provided in PBS diluted) and incubated at 4° C. for 1 hour. Then 1% BSA was treated at 4° C. for 1 hour. The cells were fixed with 4% paraformaldehyde for 5 minutes. The cells were then stained with […] (DAPI) and mounted on a fluorescence microscope (Zeiss, Oberkochen, Germany).

[3] = test system: MDA-MB-231 tumor tissue after rapamycin autophagy induction; test: Microscopy of tumor frozen sections for peptide target signal; format: in vivo, nude mouse; details: flamma 675-labeled peptide; five hours after the peptide injection; frozen sections (FIG. 10)
Description: After five hours of the peptide injection, the image were acquired. Then the mice were sacrificed and the tumors were separated and frozen sections of tissues were prepared. Six μm-thickness tumor frozen sections were stained with DAPI for nuclear staining and immunostained with LC3 antibody for autophagy induction. The signal of flamma 675 (FPR675) dye, LC3 and DAPI were observed as red, green and blue under a microscope, respectively.

[4] = test system: MDA-MB-231 tumor after rapamycin autophagy induction; test: In vivo NIRF imaging of autophagy in tumor animal model; design: species or system nude mouse; details: flamma 675-labeled peptide, tail vein, 50 μM; 4 to 5 hours after peptide injection; rapamycin 1.5 mg per kg i.p. (FIG. 9)
Description: As an experiment for monitoring and imaging autophagy using a peptide probe, tumor cells were transplanted into immunodeficient nude mice to grow tumors, and animal models for experiments were constructed. The MDA-MB-231 cell (10^6 cells), which was verified in the results of FIGS. 7A and 7B of the present invention, was injected into the femoral region of the nude mouse, and it was confirmed that the size of the tumor was 80 mm^3 after 10 days. In order to induce autophagy, rapamycin was injected intraperitoneally into each mouse in an amount of 1.5 mg per kg of the mouse. Two hours after the injection of rapamycin, AtgPep-2 (CQQTKNYYC: SEQ ID NO: 2) of the present invention, labeled with flamma 675 (=FPR675, Bioact Co., Korea), a near-infrared fluorescent (NIRF) was administered to each mouse (N=5 To 7) via tail vein at a final 50 μM concentration/mouse, while being allowed to circulate along the blood for 2 hours to obtain optical and fluorescence imaging at 2 hours, 4 hours, and 5 hours after the administration of the peptide. As a control, CNSSSVDKC peptide (Control, SEQ ID NO: 10) labeled with flamma 675 was injected at the same concentration and method. NIRF imaging signals were scanned and acquired using an IVIS imaging system (Caliper Life Sciences, Massachusetts, USA).

[5] = test system: HeLa cell, Chang cell and BEAS-2B cell; test: Detection of autophagy cells in other cell types, fluorescence microscopy; format: cell-based; details: rhodamine B labeled, BEAS-2B cells (FIG. 8)
Description: as §1
In order to verify that the peptide of the present invention acts also on other tissues or cells other than the MDA-MB-231 cell line, autophagy was induced in several kinds of cells (derived from different tissues) and their detection ability was confirmed using AtgPep-1 (CKHHLGAIC; SEQ ID NO: 1) and AtgPep-2 (CQQTKNYYC: SEQ ID NO: 2) which represent particularly high signals among AtgPep-1 to AtgPep-4. The experimental method is the same as described above.

[6] = test system: A549, HT1376, MDA-MB-231, HeLa and BEAS-2B cell lines; test: Western blotting of LC3 I and LC3 II for autophagy level; format: cell-based; details: chloroquine treated together with rapamycin, 4 hours; all the cells (FIG. 1)
Description: After 4 hours, the cells were washed two times with 1×PBS, followed by a western blotting was carried out to investigate the protein levels of LC3 I and LC3 II (hereinafter referred to as, LC3 I/II). In order to perform the western blotting, the cells were first lysed with RIPA buffer with 1/ml protease inhibitor cocktail in the drug-treated cells. The whole cell extracts were fractionated by SDS-PAGE, and transferred to a nitrocellulose membrane using a dry blot (Bio-Rad). The membranes were incubated with TBST (10 mM Tris, pH 8.0, 150 mM NaCl, 0.5% Tween 20) containing 5% nonfat milk for 60 minutes, then washed once with TBST. The membrane was treated with rabbit antibody against human LC3 I/II (abcam) and stirred overnight at 4° C. The membrane was washed 3 times for 10 min with TBST, then was incubated for 1 hour with the HRP-labeled antibody (mouse anti-rabbit IgG-HRP, Santa Cruz, Inc.) against the rabbit antibody isolated from a mouse as a secondary antibody (1:3000 dilution). After washing three times with TBST and developing according to the protocol of the manufacturer of the ECL system (Amersham Biosciences), an image was detected with a luminescent image analyzer (LAS100 Plus, Fujifilm, Japan).

CPPNTDRSC (Artificial Amino acid sequence of AtgPep-4)
binding specificity of phage clones to autophagy cells [1]: high binding specificity to autophagy cells

CQQTKNYYC (Artificial Amino acid sequence of AtgPep-2)
fluorescence signal on early autophagy cells [2]: strong fluorescence signals
site of binding on autophagy-induced cells [2]: bound to the cell membrane of the autophagy cell
binding specificity of phage clones to autophagy cells [1]: high binding specificity to autophagy cells
target signal in the tumor tissue [3]: significantly higher
tumor targeting in NIRF imaging versus control peptide [4]: significantly higher level
targeting to autophagy cells in other cell types [5]: specifically targeted to autophagy cells regardless of cell types

CNSSSVDKC (not fully specified; cysteine pairing not given here; also: flamma 675 label) [control peptide labeled with flamma 675, reference compound]
target signal in the tumor tissue [3]: target signal was not present

CNTGSPYEC (Artificial Amino acid sequence of AtgPep-3)
binding specificity of phage clones to autophagy cells [1]: high binding specificity to autophagy cells

CCN(CC)CCCC(C)Nc1ccnc2cc(Cl)ccc12 (centres unmarked) [chloroquine]
production of LC3 II protein [6]: further increased

CKHHLGAIC (Artificial Amino acid sequence of AtgPep-1)
fluorescence signal on early autophagy cells [2]: strong fluorescence signals
site of binding on autophagy-induced cells [2]: bound to the cell membrane of the autophagy cell
binding specificity of phage clones to autophagy cells [1]: high binding specificity to autophagy cells
targeting to autophagy cells in other cell types [5]: specifically targeted to autophagy cells regardless of cell types
